Laboratory results reported in patent US20160109432A1, “METHODS AND MATERIALS FOR ASSESSING PLURIPOTENCY OF STEM CELL POPULATIONS” (Mayo Foundation for Medical Education and Research, priority 2014, published 2016).

How the values were obtained:
[1] = system: human induced pluripotent stem cells; experiment: Etoposide sensitivity assay (ESA), Annexin V/PI flow cytometry; type: cell-based; settings: for EC50: Homo sapiens, 24 h
Procedure: An assay for assessing pluripotency or for releasing a stem cell population for clinical diagnostic or therapeutic use can include obtaining a series of cell samples from the population being assessed. Each of these samples can be contacted with an increasing concentration of one or more DNA damaging agent(s). Any appropriate length of time can be used for the incubation period. For example, the cells can be incubated as 37° C. for between about 30 minutes and about 48 hours (e.g., between about 30 minutes and about 36 hours, between about 30 minutes and about 24 hours, or between about 1 hour and about 24 hours). After this contacting step, the cells can be evaluated using, for example, flow cytometry to determine how susceptible the cells are to apoptosis. In some cases, flow cytometry can be carried out as follows. Briefly, pluripotent stem cells can be seeded in plates (e.g., 24 well plates) and treated with etoposide (Sigma-Aldrich) or DMSO for a period of time (e.g., about 24 hours) at, for example, about 50% confluence. Media and cells can be stained with Annexin V FITC/PI and analyzed via flow cytometry (e.g., via a Gallios (Beckman Coulter) flow cytometer). Data analysis can be performed using Kaluza (Beckman Coulter) software and normalized by dividing the triplicate means (viable non-staining cells) by the corresponding DMSO control. Human pluripotent stem cell clones were assessed for etoposide sensitivity as follows. Mechanically processed hiPSC's were seeded onto a 24-well plate (1×60 mm dish: 1×24-well plate), maintained for 3-5 days, and subsequently treated with etoposide (1, 10, 50, 100, 250, 500, and 1,000 nM, all performed in triplicate wells) or vehicle control (DMSO) for 24 hours. Conditioned media was collected into appropriately labeled 12×75 mm flow tubes, and 200 μL of TryPLE was added to each well. Following a brief incubation at 37° C. (5-10 minutes), 1 mL of pre-warmed (37° C.) FAC's buffer (4 mM EDTA, 0.5% FBS, 1×DPBS pH 7.4 w/o Ca^2+, Mg^2+) was added to each well. The total well contents were transferred to their corresponding conditioned media tubes, and all tubes were spun down at 400×G for 5 minutes. Tubes were washed 1× with ice-cold Annexin Binding Buffer (ABB, 10 mM HEPES, 2.5 mM CaCl2, 140 mM NaCl, pH 7.4) and stained with Annexin-FITC (BD 556420, 5 μL in 100 μL total ABB per tube) for 30 minutes on ice while protected from light. All tubes were washed 1× in ABB, and the resulting cell pellets were resuspended in 400 μL of ABB supplemented with 1 μL of 1 mg/mL propidium iodide (Sigma-Aldrich, P4864). Samples were immediately assayed by flow cytometry (Gallios, Beckman Coulter), and data were subsequently analyzed for percent viability using Kaluza software (Beckman Coulter).

[2] = system: cardiomyocytes differentiated from hiPSC's; experiment: Etoposide sensitivity assay during cardiomyocyte differentiation of hiPSC's; type: cell-based, human; settings: mature, beating cardiomyocytes (Day 9)

EC50 ([1]; cleaned (C) hiPSC cultures after removal of poor quality clones/cells, 24 hours): < 300 nM | EC50 ([1]; poor quality clones/cells from unclean (UC) hiPSC cultures, feeder free): > 300 nM
Compound: COc1cc([C@@H]2c3cc4c(cc3[C@@H](O[C@@H]3O[C@@H]5CO[C@@H](C)O[C@H]5[C@H](O)[C@H]3O)[C@H]3COC(=O)[C@H]23)OCO4)cc(OC)c1O [etoposide]
etoposide sensitivity ([1]; Sendai virus derived hiPSC clones compared to lentivirus reprogrammed clones, 126 clones): significant decrease in etoposide sensitivity | etoposide sensitivity ([1]; hiPSC clones of poor quality and cellular differentiation, feeder free conditions): reduced or negligible etoposide sensitivity | sensitivity to etoposide ([1]; hiPSC lines RT 4.1 and RT 6.21 compared with other hiPSC lines, 24 hours): greatest sensitivity | sensitivity to etoposide [2]: near complete lack of sensitivity
